Our source for the relative viability values is the supplement of paper PMC10307832.

Test in all cases: relative viability (nuclei count vs DMSO), 5 days (fraction); higher = more cells survive
Compound in test [1]: Cn1cc(-c2cnc3ccc4ccc(CS(=O)(=O)NCc5ccccn5)cc4c(=O)c3c2)cn1 [MK-8033] + O=C(c1cc(Cc2n[nH]c(=O)c3ccccc23)ccc1F)N1CCN(C(=O)C2CC2)CC1 [Olaparib] (partner 8 µM)
Put shortly:
(§1)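 Values are medians from duplicate plates. Each reflects relative viability, defined as the nuclei count of treated wells over that of vehicle wells. Lung cancer cell lines in 1536-well plates were pin-tool dosed one day after seeding with one drug alone or with a fixed anchor-drug dose plus five library-drug doses (not always all listed) in √10 steps, then fixed, stained and imaged at 4× after 5 days.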

Compound in test [2]: CCc1c2c(nc3ccc(OC(=O)N4CCC(N5CCCCC5)CC4)cc13)-c1cc3c(c(=O)n1C2)COC(=O)[C@]3(O)CC [Irinotecan] + CC1(C)CCC(c2ccc(Cl)cc2)=C(CN2CCN(c3ccc(C(=O)NS(=O)(=O)c4ccc(N[C@H](CCN5CCOCC5)CSc5ccccc5)c(S(=O)(=O)C(F)(F)F)c4)cc3)CC2)C1 [Navitoclax] (partner 0.5 µM)
Put shortly: as §1

Compound in test [3]: Cn1cc(-c2cnc3ccc4ccc(CS(=O)(=O)NCc5ccccn5)cc4c(=O)c3c2)cn1 [MK-8033] + Nc1nc2[nH]cc(CCc3ccc(C(=O)N[C@@H](CCC(=O)O)C(=O)O)cc3)c2c(=O)[nH]1 [Pemetrexed] (partner 0.2 µM)
Put shortly:
as §1

Compound in test [4]: CC[C@@H](C)CNCC(=O)N1CCC2=C([C@@H]1COC3=CC=CC(=C3)C)C=CS2 [RU-SKI 43] + N=C(N)NC(=N)NCCc1ccccc1 [Phenformin] (partner 250 µM)
Put shortly: as §1

Regarding UMC-11, the relative viability in test [1] (first compound 0.02 µM) amounted to 0.449; in test [1] (first compound 0.06325 µM), 0.375; in test [1] (first compound 0.2 µM) it was 0.353; in test [1] (first compound 0.6325 µM) it was 0.405; in test [1] (first compound 2 µM) it was 0.37; in test [2] (first compound 0.6325 µM) it was 0.235. Besides, the relative viability was determined as 0.208 in test [2] (first compound 2 µM); 0.163 in test [2] (first compound 6.325 µM); 0.147 in test [2] (first compound 20 µM); 0.801 in test [3] (first compound 0.02 µM); 0.75 in test [3] (first compound 0.06325 µM); 0.66 in test [3] (first compound 0.2 µM). Moreover, the relative viability was 0.815 in test [3] (first compound 0.6325 µM); 0.683 in test [3] (first compound 2 µM); 0.349 in test [4] (first compound 0.1 µM); 0.366 in test [4] (first compound 0.3162 µM); 0.33 in test [4] (first compound 1 µM); 0.32 in test [4] (first compound 3.162 µM). Further, the relative viability in test [4] (first compound 10 µM) came out at 0.344.
